Measured values as given in patent publication EP4778516A1, “CALCIFICATION ENHANCER FOR OSTEOBLAST MC3T3-E1 CELL” (Watanabe Oyster Laboratory Co., Ltd., priority 2023, dated 2025).

What was measured:
Type in all cases: cell-based, mouse
MC3T3-E1 cells [1] = assay: Cell death assay (count of attached cells after 48 hours from subconfluence)
Protocol: To evaluate the effects of DHMBA on cell death of osteoblasts MC3T3-E1, the cells (1×10^5/ml medium per well in a 24-well plate) were cultured in a-MEM containing 10% FBS and 1% P/S. After culturing for 3 days until reaching subconfluence, either a reagent vehicle (1% ethanol as final concentration) or DHMBA (0.1, 1, 10, 100, or 1000 mM) was added, and the cells were further cultured for 48 hours. After culture, to count the number of cells attached to each well, a […] containing 0.05% trypsin and EDTA (0.1 ml per well) was added, and then the culture plates were incubated at 37°C for 2 minutes. Subsequently, a-MEM (0.9 ml) containing 10% FBS and 1% P/S was added, and the cells were detached and mixed by pipetting. The cell suspension (0.1 ml) was mixed with 0.1 ml of 0.5% trypan blue staining solution. By this staining, […]. Viable cells were counted under a microscope (Olympus MTV-3) using a hemocytometer (Sigma-Aldrich, St. Louis, MO) and a cell counter (H-102P, Line Seiki Co., Ltd., Tokyo, Japan), and the average of two counts was calculated. Cell numbers were expressed as the number per well.

MC3T3-E1 cells [2] = assay: Crosstalk (Transwell co-culture) between MC3T3-E1 cells and RAW264.7 cells; conditions: DHMBA 1 or 10 mM
Protocol: To investigate crosstalk between osteoblast MC3T3-E1 cells and macrophage RAW264.7 cells, an assay was performed using Transwell chambers (Corning Inc., Life Sciences, catalog no. CLS3464-48EA, USA) equipped with a polycarbonate filter (pore size […], diameter 6.5 mm). MC3T3-E1 cells (1×10^5 cells per 1 ml medium) were added in a-MEM medium (1 ml) containing 10% FBS and 1% P/S in the lower chamber. RAW264.7 cells were suspended in DMEM containing 10% FBS and 1% P/S, and 0.5 ml of the suspension (5×10^4 cells/ml medium) was added to the upper chamber of each Transwell. RAW264.7 cells were incubated at 37°C for 1 hour under 5% CO2 and 95% air to allow attachment to the upper chamber. The plates equipped with the Transwell chambers were then placed in an incubator at 37°C under 5% CO2 and 95% air. To induce inflammatory conditions in RAW264.7 cells, LPS (100 ng/ml medium) was added to the upper chamber containing RAW264.7 cells. […] MC3T3-E1 cells attached to the dishes (wells) were counted as described in the section "Cell proliferation assay". […]
Thereafter, a Transwell chamber was placed in each culture well, and RAW264.7 cells were added to the upper chamber at 0.5 ml (5×10^4 cells/ml medium), in the presence or absence of LPS (100 ng/ml medium). […] Cells attached to the dishes (wells) were counted as described in the section "Cell proliferation assay".

RAW264.7 cells = assay: TNF-a production assay (ELISA); conditions: LPS 10 or 100 ng/ml, DHMBA 1 or 10 mM; Fig. 7A
Protocol: RAW264.7 cells (1× 10^5/ml per well) were cultured in DMEM containing 10% FBS and 1% P/S in a 24-well plate for 3 days until reaching subconfluence. […] The cells were detached from each culture dish to count the cell numbers as described in the section "Cell proliferation assay". […] The concentration of TNF-a in the medium was analyzed using a mouse TNF-a ELISA kit (catalog no. KHC301) purchased from Cayman Chemical Company (Ann Arbor, MI, USA) in accordance with the manufacturer's instructions. TNF-a production was expressed as the amount of TNF-a secreted into the medium in picograms per milliliter (pg/ml).

COc1c(O)cc(CO)cc1O [DHMBA, 3,5-dihydroxy-4-methoxybenzyl alcohol]
number of cells attached to the dishes (cell death) (MC3T3-E1 cells [1]; DHMBA 0.1, 1, 10, or 100 mM, 48 hours after subconfluence, Fig. 1C): not changed
number of cells (cell death) (MC3T3-E1 cells [1]; DHMBA 1000 mM, 48 hours after subconfluence, Fig. 1C): significantly decreased
TNF-a-enhanced death of MC3T3-E1 cells (MC3T3-E1 cells [1]; TNF-a 1 or 10 ng/ml plus DHMBA 1 or 10 mM, 48 hours, Fig. 3B): suppressed
decrease of proliferation of MC3T3-E1 cells by co-culture with RAW264.7 cells (MC3T3-E1 cells [2]; LPS 100 ng/ml in upper chamber, 3 days, Fig. 5C): suppressed
enhancement of death of MC3T3-E1 cells by co-culture with RAW264.7 cells (MC3T3-E1 cells [2]; LPS 100 ng/ml, 48 hours, Fig. 5D): prevented
LPS-induced increase of production of TNF-a in RAW264.7 cells (RAW264.7 cells): suppressed
